{"source": "ChEMBL document CHEMBL3085757", "about": "“Pyrazole scaffold: a remarkable tool in the development of anticancer agents” (Eur J Med Chem, 2013)"}
{"tested_on": "Artemia salina", "assay": "Cytotoxicity against brine shrimp", "type": "functional, organism-based", "units": {"IC50": "ppm"}}
{"molecule": "CC1=NN(c2ccc(Br)cc2Br)C(=O)/C1=N\\NC(N)=S", "IC50": 36}
{"molecule": "CC1=NN(c2ccc(Br)cc2Br)C(=O)C1=O", "IC50": 36}
{"molecule": "CC(=O)NNC1=NN(C(C)=O)C2(O1)C(=O)N(c1ccc(Br)cc1Br)N=C2C", "note": "(centres undefined)", "IC50": 20}
{"molecule": "CC(=O)NC1=NN(C(C)=O)C2(S1)C(=O)N(c1ccc(Br)cc1Br)N=C2C", "note": "(centres undefined)", "IC50": 19.5}
